Several values for one entry are separate records, joined by “and”; a condition that tells them apart may be missing. Identical values can stand only once. Like-named read-outs stand apart in the source and are kept apart here.
What was measured:
PTX-induced CIPN [1] = test: Repetitive PTX exposure, delayed 4-AP from week 6 (Example 5); assay type: in vivo, mice; details: four cycles 35 mg/kg PTX
Description: To examine this question, 16 week old C7BL/6 female mice were given four cycles of PTX treatment at doses of 35 mg/kg PTX (i.p.). Animals were separated into control (saline, i.p.) or treatment group treated with a dose of 4AP 25% of that used in FIGS. 1 and 2 (i.e., 0.5 mg/kg 4-AP daily, i.p., with treatment initiated 6 weeks after the first PTX treatment and when CIPN-related changes were already apparent).

[2] = Circulating 4-AP levels by HPLC (Example 11); assay type: in vivo, mice; details: for Circulating 4-AP levels, Amount / concentration at 1 h: 1 hour after i.p. injection, individual mice; for concentration at 1 h: mouse, blood, ip, 1 /g/kg, read-out: Circulating 4-AP levels, Amount
Description: 4-AP was injected i.p. at the indicated time points after the beginning of treatment. Mice received PTX on day 0 of the experiment, and half of those mice also were injected with 4-AP at this time, and every day thereafter, at a dosage of 1/g/kg. Blood samples were drawn 3 and 7 days after the beginning of the experiment and were taken 1 hour after the injection of 4-AP. Circulating levels of 4-AP were determined by HPLC analysis.

[3] = tested on: E0771 murine breast cancer cell line; test: 4-AP co-applied with paclitaxel to cancer cells in vitro (Example 10); assay type: cell-based
Description: (§1) To investigate the effects of 4-AP treatment on cancer cells, 4-AP was co-applied with either paclitaxel or cisplatin in dose response curves extending over a >20-fold range to the widely studied E0771 murine breast cancer cell line and the A549 human lung cancer cell line. Cells were exposed to paclitaxel or cisplatin for 5 days in the presence or absence of 1 mM 4-AP. This concentration of 4-AP is typically used for in vitro studies, and greatly exceeds achievable concentrations in vivo. This higher dose would increase the likelihood of detecting protective activity.

kidney = test: Kidney histology (H&E) after PTX with or without 4-AP (Example 8); assay type: in vivo, mice; details: PTX day 0
Description: To examine effects on the kidney histological studies were conducted on this tissue. Mice received PTX on day 0 of the experiment, and half of those mice also were injected with 4-AP at this time, and every day thereafter, at a dosage of 2 mg/kg. Mice not receiving 4-AP were injected with saline to control for any stress induced by daily injections. Experimental groups also included mice receiving no PTX treatment, and treated only with daily injections of saline. Mice were sacrificed after 1 week. Mice were perfused with 4% paraformaldehyde and kidneys were sectioned and stained with haematoxylin & eosin (H&E).

[4] = tested on: glial fibrillary acidic protein (GFAP); test: GFAP immunofluorescence in corpus callosum after PTX with or without 4-AP (Example 9); assay type: in vivo; details: E0771 tumor-bearing mice; PTX 35 mg/kg day one; 4-AP daily
Description: To determine whether 4-AP treatment can prevent PTX-induced increases in a reactive inflammatory response in the brain, as detected by increased expression of glial fibrillary acidic protein (GFAP), 16-week-old female C57BL/6 mice were inoculated with a triple negative murine breast cancer cell line E0771. When tumors were palpable, the mice were injected with either paclitaxel and water, 4-AP, both, or saline as a control. Paclitaxel (35 mg/kg) was injected on day one and 4-AP and water were injected daily. The mice were sacrificed on day nine and their brains were perfused and harvested. Brains were cryosectioned coronally.
The mouse brain sections were stained with anti-GFAP antibodies, followed by a fluorescent secondary, for analysis via immunofluorescence.

[5] = tested on: A549 human lung cancer cell line; test: 4-AP co-applied with cisplatin to cancer cells in vitro (Example 10); assay type: cell-based; details: 5 days, 1 mM 4-AP
Description: as §1

[6] = tested on: acute peripheral nerve traumatic crush injuries; details: localized peripheral nerve crush injuries; cited from earlier work
PTX-induced CIPN [7] = test: Repetitive PTX exposure, concurrent low-dose 4-AP weeks 1-12: function and nerve ultrastructure (Examples 3 and 4); assay type: in vivo, mice
Description: To determine whether 4-AP also conferred protection against developing CIPN when animals were repetitively exposed to PTX, 16 week old C7BL/6 female mice were given four cycles of PTX treatment at doses of 35 mg/kg PTX (i.p.). Animals were separated into control (saline, i.p.) or treatment group treated with a dose of 4AP 25% of that used in Examples 1 and 2 (i.e., 0.5 mg/kg 4-AP daily, i.p.).
To determine whether 4-AP prevented chemotherapy-induced structural damage even when chemotherapy was applied multiple times, ultrastructural analyses of tissue from mice treated with 35 mg/kg PTX, every 3 weeks, for 4 cycles of treatment was conducted. A low dose of 4-AP that was only 25% of the dose used in Examples 1 and 2 was used, which was applied at 0.5 mg/kg daily instead of 2 mg/kg daily.

[8] = tested on: chronic spinal cord injury; details: individuals with chronic spinal cord injury; cited from earlier work
PTX-induced CIPN [9] = test: Four PTX injections, concurrent 4-AP (Example 2); assay type: in vivo, mice; details: 4-AP 1 mg/kg daily concurrent
Description: A subset of animals concurrently received 4-AP (1 mg/kg, daily), which was started at the same as the initial PTX treatment and continued throughout. Functional outcome responses were recorded at three-week intervals throughout the study period, and included von Frey monofilament testing, cold plate thermal sensitivity, CatWalk™ gait analysis, and nerve conduction testing. All animals had functionally demonstrable peripheral neuropathy at six weeks.

PTX-induced CIPN [10] = test: Repetitive PTX exposure, 4-AP weeks 6-12, follow-up to week 18 (Example 6); assay type: in vivo, mice
Description: To examine this question, 16 week old C7BL/6 female mice were given four cycles of PTX treatment at doses of 35 mg/kg PTX (i.p.). All animals had functionally demonstrable peripheral neuropathy at six weeks. Animals were then treated with the same dose and treatment regimen of 4-AP used in FIG. 5.

[11] = 0.5 mg/kg 4-AP daily started at week 6
[12] = mice treated with 4-AP only, 3 days post
[13] = mice treated with PTX + 4-AP, 7 day 1st draw
[14] = four cycles 35 mg/kg PTX, 0.5 mg/kg 4-AP daily
[15] = four cycles 35 mg/kg PTX, 0.5 mg/kg 4-AP daily i.p.
[16] = 4-AP 0.5 mg/kg/day weeks 6-12, observed to week 18
[17] = 4-AP 0.5 mg/kg/day weeks 6-12, 12 and 18 week time points

## Nc1ccncc1 [4-AP, 4-aminopyridine]
PTX-induced CIPN [1]; 0.5 mg/kg 4-AP daily i.p. started at week 6
  mechanical hypersensitivity, von Frey filament testing: benefits of 4-AP treatment began to be observed at Week 12
PTX-induced CIPN [1]; [11]
  gait abnormalities, Catwalk analyses: reversed PTX-induced gait abnormalities
  jumping behavior, cold-plate stimulus: reversed the symptoms of hypersensitivity to thermal stimuli
  nerve conduction (latency, amplitude, velocity): reversed PTX-induced abnormalities in nerve conduction
  structural myelin abnormalities indicative of myelin degeneration: reversed PTX-induced structural myelin abnormalities
[2]; PTX day 0, 4-AP daily
  PTX-induced changes in kidney function (inferred from 4-AP renal clearance): prevented PTX-induced changes in kidney function
[2]; day 3 or day 7, 1 hour after i.p. injection
  circulating 4-AP levels, 4-AP alone versus 4-AP+PTX: did not differ
[2]; [12]
  Circulating 4-AP levels, Amount: 0.393 µM and 0.376 µM and 0.486 µM and 0.427 µM
  concentration at 1 h: 298 nM
[2]; mice treated with 4-AP only, 7 day 1st draw
  Circulating 4-AP levels, Amount: 0.376 µM and 0.246 µM and 0.293 µM and 0.140 µM and 0.337 µM
[2]; mice treated with PTX + 4-AP, 3 days post
  Circulating 4-AP levels, Amount: 0.721 µM and 0.504 µM and 0.312 µM and 0.321 µM and 0.277 µM
[2]; [13]
  Circulating 4-AP levels, Amount: 0.292 µM and 0.274 µM and 0.236 µM and 0.231 µM
  concentration at 1 h: 352 nM
[3]; 5 days exposure to PTX in vitro, concurrent 4-AP (1 mM)
  protection of cancer cells from PTX: did not protect
[3]; 5 days, 1 mM 4-AP
  sensitivity of cancer cells to paclitaxel: appears to even increase sensitivity to low doses of paclitaxel
kidney; 4-AP 2 mg/kg daily, sacrificed after 1 week
  proximal and distal tubules, H&E staining: normal proximal and distal tubules
kidney; 4-AP co-treatment
  histological kidney damage caused by PTX exposure: prevented multiple aspects of histological kidney damage
[4]
  PTX-induced increased expression of GFAP, corpus callosum: greatly reduced
[5]
  protection of cancer cells from cisplatin: does not protect
[6]
  recovery of thermal hyperalgesia and mechanical allodynia: enhanced recovery on the specific parameter or thermal hyperalgesia, but not mechanical allodynia
PTX-induced CIPN [7]; [14]
  G ratio (axon:myelin area): better myelinated than the control (PTX+Saline) group
  axon circularity: more regularly structured than the control group
  frequency of degenerating myelin profiles: decreased frequency of degenerating myelin profiles
PTX-induced CIPN [7]; [15]
  gait abnormalities, Catwalk analyses: ameliorated PTX-induced gait abnormalities
  jumping behavior, cold-plate stimulus: highly significant at Weeks 6, 9 and 12
  nerve conduction (latency, amplitude, velocity): ameliorated PTX-induced abnormalities in nerve conduction
  pawlifts, cold-plate stimulus: trended significant at Weeks 6 and 9 and were highly significant at Week 12
PTX-induced CIPN [7]; four cycles 35 mg/kg PTX, 0.5 mg/kg 4-AP daily i.p. weeks 1-12
  mechanical hypersensitivity, von Frey filament testing: ameliorated PTX-induced mechanical hypersensitivity
PTX-induced CIPN [7]; repetitive exposure to chemotherapy, 0.5 mg/kg 4-AP daily
  mitochondrial health by mitochondrial structure: improves mitochondrial health
[8]
  Phase III outcome: failed to reveal significant benefits
  neuropathic pain: decrease neuropathic pain in some individuals
PTX-induced CIPN [9]; four 35 mg/kg PTX i.p. at three-week intervals
  mechanical allodynia, Von Frey filament testing: no changes from baseline in their response
PTX-induced CIPN [9]; four 35 mg/kg PTX
  amplitude and velocity of nerve impulse conduction: prevented the development of these changes
  loss of cold sensitivity, paw lifts and hind paw licks on cold plate: prevented the development of these changes
  sensitivity to cold, jumps off cold plate: no changes from baseline in this parameter
PTX-induced CIPN [10]; 4-AP 0.5 mg/kg/day weeks 6-12
  nerve conduction latency: reverse PTX-induced abnormalities in nerve conduction latency
PTX-induced CIPN [10]; [16]
  Catwalk Regularity Index: benefits observed at Week 9 (i.e, after 3 weeks of 4-AP treatment) and retained for at least 6 weeks after 4-AP treatment ended
  durability of benefits on peripheral nerve function: Benefits were still present six weeks after the end of treatment
  mechanical hypersensitivity, von Frey filament testing: Benefits began to be observed at Week 12 and were maintained at Weeks 15 and 18
  paw lifts and jumping behavior, cold-plate stimulus: durable reversal
PTX-induced CIPN [10]; [17]
  G-ratio: restored to normal at the 12 week time point, and these benefits are maintained at the 18 week time point
  circularity: restored to normal at the 12 week time point, and these benefits are maintained at the 18 week time point
